{"source": "paper PMC11245370", "about": "“3-Position Biaryl Endochin-like Quinolones with Enhanced Antimalarial Performance” (ACS Infectious Diseases, 2024)", "key": {"[1]": {"system": "P. falciparum drug-sensitive D6 strain", "test": "SYBR Green I antiplasmodial assay, D6 strain", "format": "cell-based", "conditions": "Plasmodium falciparum, read-out: P. falciparum IC50 values, D6", "description": "(§1) All of this information is stored in a database with information relating to chemical structure, physical chemical properties, cross resistance patterns, mammalian cell cytotoxicity, enzyme inhibitor profiles, and synthesis details. Pharmacological data and in vivo efficacy data are also stored in the database for molecules of particular interest. […] We synthesized the compound in an initial batch size of about 800 mg as described above. […] Fluorescence readings were captured with a fluorescence plate reader and processed by nonlinear regression analysis using the GraphPad Prism software to provide IC50 values for each determination. Stock solutions were freshly prepared daily in DMSO in glass vials.\n(§2) Laboratory strains of P. falciparum were cultured in human erythrocytes by standard methods. The parasites were grown in culture medium with fresh human erythrocytes maintained at 2% hematocrit at 37 °C in low-oxygen conditions (5% O2, 5% CO2, 90% N2). […] Cultures were maintained at less than 10% parasitemia by transfer of infected cells to fresh erythrocytes and culture medium every 3 or 4 days.\n(§3) SYBR green I assay. In vitro antiplasmodial activity was assessed using a published SYBR Green I fluorescence-based method.[20] The drugs were added to 96-well plates using twofold serial dilutions in complete medium. […] Asynchronous P. falciparum parasites were diluted with uninfected erythrocytes and added to the wells to give a final culture volume of 100 μL at 2% hematocrit and 0.2% parasitemia. […] The parasites were then lysed by adding 100 μL of SYBR green I lysis buffer containing 0.2 μL/ml SYBR green I dye (10,000×) in 20 mM Tris (pH 7.5), 5 mM EDTA, 0.008% (wt/vol) saponin, and 0.08% (v/v) Triton X-100. The plates were incubated at room temperature for an hour in the dark. […] If the IC50 value fell outside of the initially tested range, then the range was adjusted up or down, and the assay was repeated twice."}, "[2]": {"system": "P. falciparum multidrug-resistant Dd2 strain", "test": "microbe, parasite or virus in culture", "format": "cell-based", "conditions": "Plasmodium falciparum, DD2, 72 h, read-out: P. falciparum IC50 values, Dd2", "description": "as §1, §2, §3"}, "[3]": {"system": "P. falciparum atovaquone-resistant clinical isolate Tm90-C2B", "test": "SYBR Green I antiplasmodial assay, Tm90-C2B", "format": "cell-based", "conditions": "Plasmodium falciparum, read-out: P. falciparum IC50 values, Tm90-C2B", "description": "as §1, §2, §3"}, "[4]": {"system": "P. falciparum ELQ-300-resistant D1 clone", "test": "microbe, parasite or virus in culture", "format": "cell-based", "conditions": "Plasmodium falciparum, 72 h, read-out: P. falciparum IC50 values, D1"}, "[5]": {"system": "P. yoelii blood-stage infection", "conditions": "mice; for blood stage in vivo efficacy, 4 day Peters test results, NRD (nonrecrudescence dose): oral gavage days 1-4, followed to day 30", "description": "(§4) On day 5, a drop of blood was taken from the tail, and a blood smear was prepared, fixed with methanol, and stained with Giemsa. The operator then examined the stained smear microscopically to determine percent parasitemia. […] In this model, animals were inoculated exactly as for the 4 day test on day 0; however, drug was administered only on day 1, whereas smears were made on day 5 and again weekly thereafter for animals that remained aparasitemic. Animals that remained aparasitemic on day 30 were scored as cures.\nThe P. yoelii 4 day test monitors suppression of patent infection in female CF1 mice. The test began with the inoculation (iv) of parasitized erythrocytes (3.5 × 10^4P. yoelli) (from a donor animal) on the first day of the experiment (D0). […] Initially, the 3-biaryl-ELQs were tested at doses of 0.0025, 0.005, 0.01, 0.03, 0.1, 0.3, 1.0, and 10 mg/kg/day, including a vehicle-only (PEG400) control. After completion of drug treatment, a blood sample was collected (by pricking the tail vein) for determination of parasite burden beginning on the day after the final dose (D5). Percent parasitemia was assessed by direct microscopic analysis of Giemsa-stained blood smears. […] Animals with observable parasitemia following the experiment were euthanized; animals cleared of parasites from the bloodstream were observed daily with assessment of parasitemia performed weekly until day 30, at which point the animals were scored as cured of infection. […] Nonlinear regression analysis was used for objective determination of ED50’s and ED90’s from the accumulated data as well as the nonrecrudescence dose (NRD). The 4 day test protocol was reviewed and approved by the local IACUC board at the Portland VA Medical Center. Experiments were performed with four mice per group to ensure statistical accuracy."}, "[6]": {"system": "P. yoelii blood-stage infection", "test": "Single-dose cure of blood-stage murine malaria", "format": "in vivo, Plasmodium yoelii", "conditions": "lowest single oral dose curing all four mice, day 30", "description": "as §4\nThe effectiveness of selected 3-biaryl ELQs and prodrugs was assessed vs the blood-stage infection for single-dose cures. Mice were infected iv with 3.5 × 10^4P. yoelii infected RBCs as described for the 4 day test above. Drug administration occurred on the day after inoculation (day 1). Test agents were dissolved in PEG-400 and administered ig once. On the fifth day, blood films were prepared, and % parasitemia was assessed. Animals remaining parasite-free for 30 days after drug administration were considered cured. The initial dosing range was 0.25, 0.5, 1, 3, and 10 mg/kg, including a control. Experiments were performed with four mice per group to ensure statistical accuracy. The reported parameter for these studies is the lowest single dose that provides a cure to all four animals in the group."}, "[7]": {"target": "human liver cytochrome bc1 complex (Homo sapiens, UniProt P00156)", "parameters": "method as in Nilsen et al., 2013", "conditions": "ref Nilsen et al., 2013; cited from earlier work"}, "[8]": {"conditions": "ELQ-300, active metabolite of ELQ-331; comparison value, no reference given; cited from earlier work"}, "[9]": {"test": "HepG2 cytotoxicity / mitochondrial toxicity (TiterGlo ATP, galactose medium)", "conditions": "human, HepG2 cells", "experimental": "HepG2 was routinely cultured in DMEM containing 10% fetal calf serum and 100 IU/mL penicillin and 100 μg/mL streptomycin (complete medium). For studies to investigate the potential for mitochondrial toxicity by selected 3-biaryl-ELQs, the medium contained galactose rather than glucose to force the cells to produce ATP through oxidative phosphorylation, which in turn makes them sensitive to mitochondrial toxicants.[36] […] After this period, the culture medium was removed, and the cells were shifted to galactose-containing medium with test drugs at concentrations ranging from 0 to 10 μM. Drug dilutions were prepared from DMSO stocks into galactose-containing medium. […] After incubation, the contents of each well were removed, and 25 μL of TiterGlo II reagent mix containing luciferase, detergent, and luciferin was added to each well along with 25 μL of culture medium. […] At this point, the plates were read on a luminometer (SpectraMax iD3 iD5Multi-Mode Microplate Reader), and the data were processed to yield the percent decrease in ATP production relative to no-drug control values. These values reflect the potential damage caused by mitochondrial toxicants due to reduced intracellular ATP levels caused by interference with the human mitochondrial electron transport chain. Assays were set up in triplicate."}, "[10]": {"system": "P. falciparum drug-sensitive D6 strain", "conditions": "earlier work of the authors, no reference given; cited from earlier work"}, "[11]": {"system": "P. falciparum multidrug-resistant Dd2 strain", "conditions": "earlier work of the authors, no reference given; cited from earlier work"}, "[12]": {"system": "P. falciparum atovaquone-resistant clinical isolate Tm90-C2B", "conditions": "earlier work of the authors, no reference given; cited from earlier work"}, "[13]": {"conditions": "earlier work of the authors, no reference given; cited from earlier work"}, "[14]": {"conditions": "oral gavage days 1-4, parasitemia day 5, prodrugs dosed on molar equivalency to parent"}}, "note": "Read-outs that look alike come from different tables or passages of the source.", "data": [{"smiles": "O=C1C(O)=C([C@H]2CC[C@H](c3ccc(Cl)cc3)CC2)C(=O)c2ccccc21", "note": "[Atovaquone, reference compound]", "values": [{"measurement": "IC50", "setting": "[1]; D6, 72 h, SYBR Green, mean (95% confidence interval of fit)", "result": 0.08, "unit": "nM"}, {"measurement": "IC50", "setting": "[2]", "result": 0.4, "unit": "nM"}, {"measurement": "IC50", "setting": "[3]; TM90, 72 h, SYBR Green, mean (95% confidence interval of fit)", "result": "> 1000", "unit": "nM"}, {"measurement": "IC50", "setting": "[4]", "result": 0.4, "unit": "nM"}, {"measurement": "blood stage in vivo efficacy, 4 day Peters test results, NRD (nonrecrudescence dose)", "setting": "[5]", "result": 10, "unit": "mg/kg/day"}, {"measurement": "blood stage in vivo efficacy, 4 day Peters test results, ED50", "setting": "[5]; [14]", "result": 0.1, "unit": "mg/kg/day"}, {"measurement": "blood stage in vivo efficacy, single dose cure", "setting": "[6]", "result": 10, "unit": "mg/kg/day"}, {"measurement": "EC50", "setting": "[7]", "result": 460, "unit": "nM"}]}, {"smiles": "COc1cc2[nH]c(C)c(-c3ccc(Oc4ccc(OC(F)(F)F)cc4)cc3)c(=O)c2cc1Cl", "note": "[ELQ-300]", "values": [{"measurement": "IC50", "setting": "[1]; D6, 72 h", "result": 3.3, "unit": "nM"}, {"measurement": "IC50", "setting": "[2]", "result": 4.2, "unit": "nM"}, {"measurement": "IC50", "setting": "[3]; TM90, 72 h", "result": 2.5, "unit": "nM"}, {"measurement": "blood stage in vivo efficacy, 4 day Peters test results, NRD (nonrecrudescence dose)", "setting": "[5]", "result": 1.0, "unit": "mg/kg/day"}, {"measurement": "blood stage in vivo efficacy, 4 day Peters test results, ED50", "setting": "[5]; [14]", "result": 0.02, "unit": "mg/kg/day"}, {"measurement": "blood stage in vivo efficacy, 4 day Peters test results, ED90", "setting": "[5]; [14]", "result": 0.06, "unit": "mg/kg/day"}, {"measurement": "blood stage in vivo efficacy, single dose cure", "setting": "[6]", "result": ">25", "unit": "mg/kg/day"}, {"measurement": "elimination T1/2", "setting": "[8]", "result": 14.6, "unit": "h"}, {"measurement": "EC50", "setting": "[7]", "result": "> 10000", "unit": "nM"}, {"measurement": "IC50 at 24 h", "setting": "[9]", "result": "> 10000", "unit": "nM"}]}, {"smiles": "COc1cc2[nH]c(C)c(-c3ccc(Oc4cccc(OC(F)(F)F)c4)cc3)c(=O)c2cc1Cl", "note": "[ELQ-307]", "values": [{"measurement": "IC50", "setting": "[10]", "result": "≤ 0.03", "unit": "nM"}, {"measurement": "IC50", "setting": "[11]", "result": "≤ 0.03", "unit": "nM"}, {"measurement": "IC50", "setting": "[12]", "result": "≤ 0.03", "unit": "nM"}, {"measurement": "metabolic stability", "setting": "[13]", "result": "metabolically unstable"}]}]}
